This is an account of results in PMC6338780, “Structural elements of a pH-sensitive inhibitor binding site in NMDA receptors” (Nature Communications, 2019).

Each structure is given as a SMILES string. Where “and” joins values, the source holds several entries; their conditions need not be identical. Equal entries are not always repeated. Marks after values point to notes of the source that are not given here.

For assay [1], the target named is T1, GluN1-4a(H134A)/GluN2B NMDA receptor (Rattus norvegicus, UniProt P35439+Q00960, H134A).
T1 construct: compared to that observed for full-length receptors in TEVC recordings; expressed in transfected cells; host or cells: Xenopus laevis oocytes, cRNA injection
T1 sequence (Q00960 27-1482, other chains not shown): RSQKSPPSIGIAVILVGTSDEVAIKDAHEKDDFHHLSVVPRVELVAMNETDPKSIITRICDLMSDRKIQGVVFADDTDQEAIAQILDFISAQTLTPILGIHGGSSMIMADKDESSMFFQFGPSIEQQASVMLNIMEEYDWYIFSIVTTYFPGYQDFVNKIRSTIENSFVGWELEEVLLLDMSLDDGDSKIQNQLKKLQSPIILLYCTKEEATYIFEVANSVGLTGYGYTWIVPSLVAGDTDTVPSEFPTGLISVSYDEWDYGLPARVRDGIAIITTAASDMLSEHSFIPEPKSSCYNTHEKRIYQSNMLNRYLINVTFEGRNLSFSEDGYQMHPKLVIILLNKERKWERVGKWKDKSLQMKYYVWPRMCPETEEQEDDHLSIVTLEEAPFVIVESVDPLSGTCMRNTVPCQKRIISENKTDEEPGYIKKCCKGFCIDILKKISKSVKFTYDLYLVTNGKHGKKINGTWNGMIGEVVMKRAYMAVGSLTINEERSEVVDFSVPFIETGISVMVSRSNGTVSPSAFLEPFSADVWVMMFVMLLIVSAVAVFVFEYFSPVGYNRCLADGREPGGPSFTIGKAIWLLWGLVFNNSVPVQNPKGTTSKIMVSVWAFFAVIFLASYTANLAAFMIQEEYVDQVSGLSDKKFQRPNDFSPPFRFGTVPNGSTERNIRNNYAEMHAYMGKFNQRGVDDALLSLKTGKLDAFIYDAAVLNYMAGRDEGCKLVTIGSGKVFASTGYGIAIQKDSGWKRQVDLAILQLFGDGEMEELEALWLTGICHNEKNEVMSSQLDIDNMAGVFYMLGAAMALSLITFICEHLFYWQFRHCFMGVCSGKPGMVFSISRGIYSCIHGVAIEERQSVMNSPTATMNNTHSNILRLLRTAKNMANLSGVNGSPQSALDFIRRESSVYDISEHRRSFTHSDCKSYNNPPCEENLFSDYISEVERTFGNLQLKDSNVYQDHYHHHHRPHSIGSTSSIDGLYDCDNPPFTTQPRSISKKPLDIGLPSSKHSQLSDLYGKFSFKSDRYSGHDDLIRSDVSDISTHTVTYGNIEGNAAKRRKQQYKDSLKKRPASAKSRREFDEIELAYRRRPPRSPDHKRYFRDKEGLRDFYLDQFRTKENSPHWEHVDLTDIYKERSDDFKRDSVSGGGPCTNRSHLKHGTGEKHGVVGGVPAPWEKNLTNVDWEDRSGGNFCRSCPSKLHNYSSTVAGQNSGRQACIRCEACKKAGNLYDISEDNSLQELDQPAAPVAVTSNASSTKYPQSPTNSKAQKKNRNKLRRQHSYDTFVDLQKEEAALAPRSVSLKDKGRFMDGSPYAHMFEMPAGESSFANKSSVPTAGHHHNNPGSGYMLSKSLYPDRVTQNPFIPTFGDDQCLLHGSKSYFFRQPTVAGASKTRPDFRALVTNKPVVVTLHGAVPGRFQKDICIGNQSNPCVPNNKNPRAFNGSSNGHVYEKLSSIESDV
The experiment in a line: TEVC concentration–response, GluN1-4a(H134A) mutant. The class given is cell-based. As to conditions: pH 7.6; BAPTA (Table 3). On the procedure: Missense mutations were introduced into rat cDNAs encoding GluN1-4a and GluN2B in the pGEM-HE vector using the QuikChange protocol (Stratagene) using the primers listed in Supplementary Table 2. These plasmids were then linearized with NotI and used as templates for cRNA synthesis (Ambion). A total mass of 5–10 ng cRNA at a 1:2 weight ratio of GluN1-4a and GluN2B transcripts was co-injected into defolliculated Xenopus laevis oocytes (EcoCyte Bioscience). […] Voltage clamp was achieved and current responses were recorded at a holding potential of –40 mV with a two-electrode voltage clamp amplifier (Warner) at room temperature (~23 °C). Currents were low-pass filtered at 10 Hz and digitized at 20 Hz by LabWindows/CVI (National Instruments). Maximal effective concentrations of glutamate and glycine (100 and 30 μM, respectively) were used in all recordings.

For assay [2], the target named is T2, GluN1-4a(Y109W)/GluN2B NMDA receptor (Rattus norvegicus, UniProt P35439+Q00960, Y109W).
T2 construct: compared to that observed for full-length receptors in TEVC recordings; expressed in transfected cells; host or cells: Xenopus laevis oocytes, cRNA injection
T2 sequence (Q00960 27-1482, other chains not shown): as above
The experiment in a line: TEVC concentration–response, GluN1-4a(Y109W) mutant. The class given is cell-based. As to conditions: pH 7.6; BAPTA (Table 3). Here is the method:
(§1) Missense mutations were introduced into rat cDNAs encoding GluN1-4a and GluN2B in the pGEM-HE vector using the QuikChange protocol (Stratagene) using the primers listed in Supplementary Table 2. These plasmids were then linearized with NotI and used as templates for cRNA synthesis (Ambion). A total mass of 5–10 ng cRNA at a 1:2 weight ratio of GluN1-4a and GluN2B transcripts was co-injected into defolliculated Xenopus laevis oocytes (EcoCyte Bioscience). The oocytes were incubated in Barth’s solution containing 88 mM NaCl, 2.4 mM NaHCO3, 1 mM KCl, 0.33 mM Ca(NO3)2, 0.41 mM CaCl2, 0.82 mM MgSO4, and 5 mM HEPES, at a final pH of 7.4, supplemented with 0.1 mg mL^−1 gentamicin sulfate, 1 μg mL^−1 streptomycin, and 1 U mL^−1 penicillin at 15–19 °C. TEVC current recordings were performed 2–4 days after injection using an extracellular recording solution containing 90 mM NaCl, 10 mM HEPES, 1 mM KCl, 0.5 mM BaCl2, and 0.01 mM EDTA at either pH 6.9 or pH 7.6[39]. Voltage clamp was achieved and current responses were recorded at a holding potential of –40 mV with a two-electrode voltage clamp amplifier (Warner) at room temperature (~23 °C). Currents were low-pass filtered at 10 Hz and digitized at 20 Hz by LabWindows/CVI (National Instruments). Maximal effective concentrations of glutamate and glycine (100 and 30 μM, respectively) were used in all recordings.

For assay [3], the target named is T3, GluN1-4a/GluN2B (WT) NMDA receptor (Rattus norvegicus, UniProt P35439+Q00960).
T3 construct: compared to that observed for full-length receptors in TEVC recordings; expressed in transfected cells; host or cells: Xenopus laevis oocytes, cRNA injection
T3 sequence (Q00960 27-1482, other chains not shown): as above
In words: TEVC concentration–response in Xenopus oocytes, wild type GluN1-4a/GluN2B. The class given is cell-based. As to conditions: for Ifenprodil DR, response at 0.01: ifenprodil at 0.01; for Ifenprodil DR, response at 0.01 / Ifenprodil DR, response at 0.03 / Ifenprodil DR, response at 0.1: relative to 100/100 G/G; for Ifenprodil DR, response at 0.03: ifenprodil at 0.03; for Ifenprodil DR, response at 0.1: ifenprodil at 0.1. Here is the method: as §1, with “Maximal effective concentrations of glutamate and glycine (100 and 30 μM, respectively) were used in all recordings.” left out

Assay [4] concerns the target T4, GluN1a–GluN2B ATD heterodimer (UniProt A0A1L8F5J9+Q00960, N348D/N350Q/N61Q).
T4 construct: the ATD domains of Xenopus GluN1a and rat GluN2B; alkaline phosphatase secretion signal (N); 57 residue linker to the other ATD, with TEV protease sites (cleaved yes); made in house
In words: ITC, ligands titrated into isolated GluN1a–GluN2B ATD heterodimer. The class given is binding, Xenopus GluN1a, rat GluN2B. An excerpt: In order to directly estimate binding affinities of these inhibitors for their binding site in the GluN1–GluN2B NMDA receptors, we performed ITC using the purified GluN1a–GluN2B ATD proteins titrated with ligands of various N-substituent lengths at pH 7.6 and pH 6.5 to mimic the extreme drop in pH that can occur at the ischemic core[1]–[4] (Fig. 2a, b; Supplementary Figures 2 and 3). Toward this end, we expressed the isolated […] GluN1a–GluN2B ATD heterodimer proteins in GnTI^− HEK293S cells. Here, for clarity we will call the GluN1 ATD with and without exon 5 GluN1b ATD and GluN1a ATD, respectively.
To efficiently express the ATD domains of Xenopus GluN1a and rat GluN2B, we used the alkaline phosphatase secretion signal and fused the two domains with a 57 residue linker as described elsewhere, with the following modifications: due to an intrinsic thrombin site in the GluN2B ATD, we engineering Tobacco Etch Virus (TEV) protease sites into this construct to remove the linker. In addition, three glycosylation sites were removed by mutating GluN1a Asn61 and Asn371 to Gln, and GluN2B Asn348 was mutated to Asp.
Cell cultures were maintained at 37 °C with 5% CO2 and grown to a density of 2.0–2.5 × 10^6 cells mL^−1, then infected with baculovirus. Sodium butyrate was added to the infected cells to a final concentration of 5 mM and culture medium containing secreted GluN1a–GluN2B ATD fusion protein was harvested 96 h after infection.
Cells were removed from the medium by centrifugation and the clarified medium was concentrated and exchanged three times to cold TBS (200 mM NaCl, 20 mM Tris, pH 8.0) using tangential flow filtration with a molecular weight cutoff of 30 kDa (Pall Corporation). […] The following day, glutathione in a 10:1 ratio, reduced:oxidized, was added to the dialyzed protein to a final concentration of 3 mM, along with EDTA, pH 8.0, to a final concentration of 1 mM. Based on the protein yield, a 1:100 ratio of TEV protease (mass:mass, TEV:ATD) was added to the ATD solution and the reaction was incubated for 4 h at 18 °C. Next, EndoF1 endoglycosidase at a 1:5 ratio (mass:mass, EndoF1:ATD) was added to the ATD/TEV mixture and dialyzed overnight at room temperature to 2 L TBS with 10% glycerol and 20 mM imidazole.
This sample was then dialyzed overnight at 4 °C to 2 L TBS with 20% glycerol. […]
After dialysis, the protein sample was diluted to 10–15 μM and dimethyl sulfoxide (DMSO) was added to a final concentration of 1.5% (v/v), in order to match that of the ligand solution. […] Dilution enthalpy was calculated from post-saturation injections and subtracted from total heats, and the data were fit using a single-site model with the program OriginLab 7.5.

Assay [5] has as its target GluN1b–GluN2B ATD heterodimer (Xenopus laevis; Rattus norvegicus, UniProt A0A1L8F5J9+Q00960, E186G/INS190[…]/N348D/N350Q/N61Q). The experiment in a line: ITC, ifenprodil titrated into isolated GluN1b–GluN2B ATD used for crystallization. The class given is binding. As to conditions: pH 7.6.
Assay [6] addresses GluN1b–GluN2B ATD heterodimer (Xenopus laevis; Rattus norvegicus, UniProt A0A1L8F5J9+Q00960, E186G/INS190SKKRNYENLDQLSYDNKRGPK/N348D/N350Q/N61Q). The assay is described as above. The class given is binding. As to conditions: pH 7.6.

T4 sequence (Q00960 31-394 N348D limits assumed, other chains not shown): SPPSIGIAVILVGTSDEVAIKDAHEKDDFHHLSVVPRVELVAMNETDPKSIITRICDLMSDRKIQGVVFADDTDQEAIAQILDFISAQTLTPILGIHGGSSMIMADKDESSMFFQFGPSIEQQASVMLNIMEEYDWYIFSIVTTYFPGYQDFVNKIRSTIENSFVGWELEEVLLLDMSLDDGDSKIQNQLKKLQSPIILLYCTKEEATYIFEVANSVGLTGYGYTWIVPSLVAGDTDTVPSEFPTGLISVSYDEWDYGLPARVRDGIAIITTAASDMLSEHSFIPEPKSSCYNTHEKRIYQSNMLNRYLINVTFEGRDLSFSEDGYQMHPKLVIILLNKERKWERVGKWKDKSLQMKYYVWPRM
UniProt Q00960, sequence (Q00960 32-394 N348D, other chains not shown): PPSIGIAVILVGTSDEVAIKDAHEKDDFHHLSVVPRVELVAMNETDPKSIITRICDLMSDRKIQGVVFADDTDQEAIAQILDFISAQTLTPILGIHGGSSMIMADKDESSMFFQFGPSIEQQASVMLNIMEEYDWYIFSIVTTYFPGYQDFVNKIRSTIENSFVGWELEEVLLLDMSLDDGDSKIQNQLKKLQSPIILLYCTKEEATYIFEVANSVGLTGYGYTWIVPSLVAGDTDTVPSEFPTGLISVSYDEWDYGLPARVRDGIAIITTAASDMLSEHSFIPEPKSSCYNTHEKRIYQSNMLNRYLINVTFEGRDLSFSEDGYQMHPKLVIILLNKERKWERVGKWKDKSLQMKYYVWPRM

In the case of `CC(C(O)c1ccc(O)cc1)N1CCC(Cc2ccccc2)CC1` (centres unmarked) [Ifenprodil, Ifenprodil hemitartrate], the “% response, current at maximal ifenprodil potentiation” value is given as “ND, 105%^f nH ND (9)” in assay [1] and “ND, 115%^f nH ND (9)” in assay [2]. In addition, the nH in assay [3] (1-4a/2B WT, pH7.6, BAPTA, ifenprodil) was 0.8364 and 0.9502 and 1.0632 and 0.8875 and 0.8992 and 1.197 and 1.038; in assay [3] (1-4a/2B WT, pH7.6, BAPTA, ifenprodil, mean) it was 0.9818; in assay [3] (Ifenprodil DR, 1-4a/2B WT, pH7.6, BAPTA, single oocyte recordings, row 'mean' = mean), 0.8875 and 0.8992 and 1.197 and 1.038 and 0.8364 and 0.9502 and 1.0632; in assay [3] (Ifenprodil DR, 1-4a/2B WT, pH7.6, BAPTA, single oocyte recordings, row 'mean' = mean, mean) it was 0.9818; in assay [3] (pH 7.6, BAPTA (Table 3)), 1.0. In addition, the “Ifenprodil DR, response at 0.01” value in assay [3] (1-4a/2B WT, pH7.6, BAPTA) is 89.9 and 98.2 and 90 and 89 and 92.8 and 95.6 and 95.4; in assay [3] (1-4a/2B WT, pH7.6, BAPTA, mean) it was 92.9857. For the same molecule, the “Ifenprodil DR, response at 0.03” value was 78.8 and 96.7 and 76.5 and 75.3 and 82 and 88.4 and 87 in assay [3] (1-4a/2B WT, pH7.6, BAPTA); 83.5286 in assay [3] (1-4a/2B WT, pH7.6, BAPTA, mean). Moreover, the “Ifenprodil DR, response at 0.1” value is 64.2 and 90.5 and 49.1 and 54.7 and 63.1 and 64.1 and 66.9 in assay [3] (1-4a/2B WT, pH7.6, BAPTA); 64.6571 in assay [3] (1-4a/2B WT, pH7.6, BAPTA, mean). In addition, in assay [3] (current at 1 μM ifenprodil, pH 7.6, BAPTA), the “% response” value came out at 35%. Also, the Kd in assay [4] (pH 6.5) was determined as 249 ± 16 nM; in assay [4] (pH 7.6), 226 ± 15 nM; in assay [6], 255 ± 11 nM. The “n (ITC stoichiometry)” value in assay [4] (pH 6.5) came out at 0.97 ± 0.01; in assay [4] (pH 7.6), 1.0 ± 0.01; in assay [5], 0.98 ± 0.01.
